Source: patent US12611406B2, “Oxopiperazine derivatives for the treatment of cancer” (Inthera Bioscience AG, priority 2020, dated 2026)
Like-named read-outs stand apart in the source and are kept apart here.

Key:
DU-145 cells = assay: Annexin V staining; assay type: cell-based
[1] = Metabolic stability in intestinal microsomes; assay type: in vitro ADME; conditions: monkey compared to human
Procedure: In vitro testing also supports the use of mouse, Beagle dog, and cynomolgus monkey models to assay dosing and effectiveness of Compound 1. […] The metabolic profiles of hepatocytes from mouse, dog, and monkey that were cultured with Compound 1 were assessed. Similarly, the metabolic stability of Compound 1 was assayed in vitro using intestinal microsomes from mouse, rat, dog, monkey, and humans.

PR6511 = PR6511 mouse PDX prostate cancer model, daily oral; assay type: in vivo
Procedure: PR6511 represents a model which was not responsive any more to enzalutamide treatment. The dose in the 10 mg/kg group was reduced to 3 mg/kg from day 51 onwards. […] QD: once daily treatment. po: per os.
Due to weight loss, animals of the 10 mg/kg group received a reduced dose of 3 mg/kg on study days 51 to 57.

22Rv1 = 22Rv1 prostate cancer CDX mouse model; assay type: in vivo
Description: Left panel: Tumor growth curves. Right panel: Body weight development. The respective dosing regimen is indicated as bars below the x-axis. QD: once daily treatment; po: per os.
Left panel: Tumor growth curves. Right panel: Body weight development. The dosing regimen is indicated as dots below the curves. BID: twice daily treatment. QW: once weekly treatment. p.o.: per oral.
NCI-H660 cells represent a rather far advanced PC type in which not only the tumor suppressor functions of Rb1 and p53 have been lost (see Table 1). Furthermore, the cells already have developed a small cell phenotype characteristic of advanced treatment-resistant PC. In contrast, 22Rv1 tumor cells that are wild-type for Rb1 and p53 pathways were less sensitive to Compound 1 treatment when a once weekly dosing scheme was used.
(§1) Values larger than 100% indicate tumor regression.

SNU-16 = SNU-16 gastric cancer CDX mouse model; assay type: in vivo
Description: Left panel: Tumor growth curves. Right panel: Body weight development. […] QW: once weekly treatment. p.o.: per oral. QD: once daily treatment. BID: twice daily treatment. QW: once weekly treatment.
as §1

DU-145 = DU-145 CDX mouse model; assay type: in vivo; conditions: once weekly 60 mg/kg/day as 30 mg/kg BID, 4 weeks; p <0.001
Description: as §1

[2] = 28-day once weekly oral repeated-dose DRF study in CD-1 mice (mesylate salt), plasma; assay type: in vivo; conditions: male; for Tmax / Cmax / AUC(0-t) / half-life: CD-1, mouse, plasma, po; for AUC(0-t): read-out: AUC0-8h
Procedure: This study explored the PK of Compound 1 after once weekly oral administration of 300 and 600 mg/kg/week for 4 consecutive weeks to male CD-1 mice.
Compound 1 (mesylate salt) was administered in 4 weekly doses by oral gavage to groups of male CD-1 mice (n=3/group) at dose levels of 300 and 600 mg/kg bodyweight per week. A suspension of 0.5% methylcellulose (w/v) in sterile water served as vehicle. Blood samples for PK analysis were collected after the second (Day 8) and fourth (Day 22) dosing at pre-dose, 0.25, 0.5, 1, 2, 4, 8, and 24 hours (the latter time point only after the 2nd dose) after administration.
Total plasma concentrations of Compound 1 were analyzed using a qualified LC-MS/MS method.

[3] = Plasma protein binding, equilibrium dialysis; assay type: in vitro ADME; conditions: 37° C, buffer pH 7.4, read-out: Fraction unbound (Fu), Mean
Procedure: Protein binding of Compound 1 to the plasma from several species, i.e., human, cynomolgus monkey, dog, rat, and mouse was investigated in vitro by incubation in plasma and determination of unbound fraction of Compound 1 using equilibrium dialysis. Compound 1 was incubated in 100% species-specific plasma and added to one side of the membrane in an equilibrium dialysis system while buffer (pH 7.4) is added to the other side. The system was allowed to reach equilibrium at 37° C. Compound concentration on both sides of the membrane is measured by liquid chromatography—tandem mass spectroscopy (LC-MS/MS).

[4] = 10 mg/kg (3 mg/kg on days 51-57) once daily
[5] = 300 mg/kg, 300 mg/kg/week, 2nd dose (Week 2)
[6] = 300 mg/kg, 300 mg/kg/week, 4th dose (Week 4)
[7] = 600 mg/kg, 600 mg/kg/week, 2nd dose (Week 2)
[8] = 600 mg/kg, 600 mg/kg/week, 4th dose (Week 4)

CC(C)C[C@@H]1NCCN([C@@H](CC(C)C)C(=O)N2CCC3(C[C@@H]2C)OCC(CN2CCCC2)CO3)C1=O (stereo partly drawn) [Compound 1, (S)-3-isobutyl-1-((S)-4-methyl-1-((S)-8-methyl-3-(pyrrolidin-1-ylmethyl)-1,5-dioxa-9-azaspiro[5.5]undecan-9-yl)-1-oxopentan-2-yl)piperazin-2-one]
Annexin V staining (DU-145 cells): induction of apoptosis | stability in intestinal microsomes [1]: lower stability | complete responders (PR6511; 6 mg/kg once daily): 3/8 | partial responder (PR6511; 6 mg/kg once daily): 2/8 | tumor-free survivors (PR6511; 6 mg/kg once daily): 3/8 | complete responders (PR6511; [4]): 4/8 | partial responders (PR6511; [4]): 2/8 | tumor-free survivors (PR6511; [4]): 3/8 | tumor response (PR6511; 10 mg/kg for approx. 8-10 days, then breaks/3 mg/kg days 51-57): full tumor regressions | tumor re-growth (PR6511; 3 weeks after end of treatment, fully regressed tumors): no re-growth of tumors | tumor response (PR6511; 6 or 10 mg/kg daily oral, study days 38-57): substantial tumor regressions up to erradication of tumors | PSA in blood (PR6511; PR6511): effective PSA reduction | tumor response (22Rv1; 3 mg/kg oral): cytostatic growth inhibition | anti-tumor activity, every other week vs daily (22Rv1; 3 mg/kg oral, 7d on/7d off compared to same dose daily): almost the same anti-tumor growth activity | Tumor growth inhibition (22Rv1; 30 mg/kg BID once weekly (60 mg/kg weekly)): approx. 50% | Tumor growth inhibition (22Rv1; once weekly 60 mg/kg/day as 30 mg/kg BID, 5 weeks, p 0.001): 47% (0.001)/**5 weeks | Tumor growth inhibition (SNU-16; once weekly 60 mg/kg/day as 30 mg/kg BID, 6 weeks, p <0.001): 103% (<0.001)/**6 weeks | anti-tumor efficacy, weekly vs daily (SNU-16; weekly 30 mg/kg BID compared to 3 mg/kg daily): comparable anti-tumor efficacy | Tumor growth inhibition (DU-145): 72 (<0.001)/**4 weeks % | Tmax ([2]; 300 mg/kg, 300 mg/kg/week, 2nd dose): 1 h | Cmax [2, 5]: 8130 ng/mL | AUC(0-t) [2, 5]: 13600 ng·h/mL | Tmax ([2]; 300 mg/kg, 300 mg/kg/week, 4th dose): 1.3 h | Cmax [2, 6]: 8370 ng/mL | AUC(0-t) [2, 6]: 38200 ng·h/mL | Tmax ([2]; 600 mg/kg, 600 mg/kg/week, 2nd dose): 5.7 h | Cmax [2, 7]: 13400 ng/mL | AUC(0-t) [2, 7]: 47800 ng·h/mL | Tmax ([2]; 600 mg/kg, 600 mg/kg/week, 4th dose): 0.5 h | Cmax [2, 8]: 28800 ng/mL | AUC(0-t) [2, 8]: 125000 ng·h/mL | half-life ([2]; 300 mg/kg/week, 2nd dose): 4.1 h | half-life ([2]; 600 mg/kg/week, 4th dose): 85.8 h | tolerability ([2]; once weekly orally for 4 weeks at 300 and 600 mg/kg/week): well tolerated | fraction unbound ([3]; dog plasma): 0.619 | fraction unbound ([3]; human plasma): 0.547 | fraction unbound ([3]; mouse plasma): 0.574 | fraction unbound ([3]; rat plasma): 0.528
